In patent US8575145B2, “Triazolopyridine compounds as PIM kinase inhibitors” (Array BioPharma Inc., priority 2008, dated 2013) one finds IC50 data, which are given here for 26 compounds.

Where a name gives a salt, the structure may show the parent alone. Read-outs that look alike come from different tables or passages of the source.

The target in assay [1] is GST-tagged recombinant full-length human PIM-2 (Homo sapiens (Human), UniProt Q9P1W9). The experiment in a line: PIM-2 Enzyme Assay.
The target of a further assay is PIM-1 (Homo sapiens (Human), UniProt P11309). The experiment in a line: PIM-1 Enzyme Assay. The class given is biochemical. In a few lines: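 Radiometric kinase assay in 20 mM K+MOPS pH 7.4, 10 mM MgCl2, 0.005% Tween-20, 1 mM DTT, 2% DMSO final; 60 min at 22° C, stopped with H3PO4, product captured on P81 filter and counted by scintillation. IC50 from 4-parameter logistic fit of percent of control.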
Sequence of PIM-1 (P11309 whole entry, species assumed): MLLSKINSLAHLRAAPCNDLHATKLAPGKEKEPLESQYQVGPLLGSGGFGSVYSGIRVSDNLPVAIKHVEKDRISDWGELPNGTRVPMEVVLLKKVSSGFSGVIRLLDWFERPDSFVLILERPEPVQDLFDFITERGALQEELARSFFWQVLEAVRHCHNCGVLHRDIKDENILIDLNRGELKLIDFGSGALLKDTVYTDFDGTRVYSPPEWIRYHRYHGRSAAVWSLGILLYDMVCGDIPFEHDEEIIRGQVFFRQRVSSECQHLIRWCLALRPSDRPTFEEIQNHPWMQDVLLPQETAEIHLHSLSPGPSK

The next assay has as its target recombinant rat PIM-3 (Rattus norvegicus (Rat), UniProt O70444). The experiment in a line: PIM-3 Enzyme Assay. The note with it: 30 μM ATP, 0.5 nM PIM-3.
Where [2] appears, read: read-out: PIM-2 IC50, 4 μM ATP, […] PIM-2.
Setting [3] is: PIM-2 IC50 (nM), 4 μM ATP, […] PIM-2.

Sequence of GST-tagged recombinant full-length human PIM-2 (Q9P1W9 whole entry): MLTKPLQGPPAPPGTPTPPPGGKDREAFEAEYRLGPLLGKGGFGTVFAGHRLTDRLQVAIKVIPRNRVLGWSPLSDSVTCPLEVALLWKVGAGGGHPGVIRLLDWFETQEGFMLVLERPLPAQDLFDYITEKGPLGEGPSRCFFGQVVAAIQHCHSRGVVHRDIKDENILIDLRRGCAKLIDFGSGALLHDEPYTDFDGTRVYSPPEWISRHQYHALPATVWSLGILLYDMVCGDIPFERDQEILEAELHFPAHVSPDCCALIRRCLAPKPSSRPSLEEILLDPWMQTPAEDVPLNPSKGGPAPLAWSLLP

For the compound `CN(C)C(=O)[C@@H]1C[C@@H](Oc2cccc3ccc(-c4nnc5ccccn45)nc23)CCN1` [Example 54, (2S,4S)-4-(2-([1,2,4]triazolo[4,3-a]pyridin-3-yl)quinolin-8-yloxy)-N,N-dimethylpiperidine-2-carboxamide dihydrochloride], the IC50 came out at 10000 nM in assay [1] (setting [2]); 178 nM against PIM-1 (35 μM ATP, 0.25 nM PIM-1); 465 nM on recombinant rat PIM-3 (read-out: PIM-3 IC50).

Consider `NC(=O)N1CCC(Oc2cccc3ccc(-c4nnc5ccccn45)nc23)CC1` [Example 40, 4-(2-([1,2,4]triazolo[4,3-a]pyridin-3-yl)quinolin-8-yloxy)piperidine-1-carboxamide], for which the IC50 came out at 1280 nM in assay [1] (setting [2]); 12 nM against PIM-1 (35 μM ATP, 0.25 nM PIM-1); 46 nM on recombinant rat PIM-3 (read-out: PIM-3 IC50).

Consider `CC1(COc2cccc3ccc(-c4nnc5ccccn45)nc23)CCN(CCO)CC1` [Example 86, dihydrochloride], for which the IC50 worked out at 142 nM in assay [1] (read-out: PIM-2 IC50); 3 nM against PIM-1 (35 μM ATP, 0.25 nM PIM-1); 10 nM at recombinant rat PIM-3 (read-out: PIM-3 IC50).

Regarding `FC1CNCCCC1Oc1cccc2ccc(-c3nnc4ccccn34)nc12` (stereo not drawn) [Example 51, 2-([1,2,4]triazolo[4,3-a]pyridin-3-yl)-8-(3-fluoroazepan-4-yloxy)quinoline dihydrochloride], the IC50 in assay [1] (read-out: PIM-2 IC50) was determined as 406 nM; on PIM-1 (35 μM ATP, 0.25 nM PIM-1), 3 nM; on recombinant rat PIM-3 (read-out: PIM-3 IC50) it was 10 nM.

For the compound `OC1(COc2cccc3ccc(-c4nnc5ccccn45)nc23)CCN(Cc2ccccc2)CC1` [Example 71, 4-((2-([1,2,4]triazolo[4,3-a]pyridin-3-yl)quinolin-8-yloxy)methyl)-1-benzylpiperidin-4-ol], the IC50 in assay [1] (setting [2]) came to 10000 nM; against PIM-1 (35 μM ATP, 0.25 nM PIM-1), 16 nM; on recombinant rat PIM-3 (read-out: PIM-3 IC50), 112 nM.

With `Fc1cc(OC2CCNCCC2F)c2nc(-c3nnc4ccccn34)ccc2c1` (single isomer, unassigned) [Example 91, trans-2-([1,2,4]triazolo[4,3-a]pyridin-3-yl)-6-fluoro-8-5-fluoroazepan-4-yloxy)quinoline], the IC50 in assay [1] (setting [2]) was determined as 39 nM; at PIM-1 (35 μM ATP, 0.25 nM PIM-1), 0.8 nM; at recombinant rat PIM-3 (read-out: PIM-3 IC50), 0.9 nM.

Take `CC(C)CCN(CCCN)c1cccc2ccc(-c3nnc4ccccn34)nc12` [Example 8, N1-(2-([1,2,4]Triazolo[4,3-a]pyridin-3-yl)quinolin-8-yl)-N1-isopentylpropane-1,3-diamine]: the half-maximal inhibitory concentration (IC50) in assay [1] (setting [2]) was 5570 nM; against PIM-1 (35 μM ATP, 0.25 nM PIM-1), 16 nM; at recombinant rat PIM-3 (read-out: PIM-3 IC50), 93 nM.

Regarding `F[C@H]1CNCC[C@@H]1Oc1cccc2ccc(-c3nnc4ccccn34)nc12` (relative stereo) [Example 25, 2-([1,2,4]triazolo[4,3-a]pyridin-3-yl)-8-((trans)-3-fluoropiperidin-4-yloxy)quinoline], the IC50 stood at 686 nM in assay [1] (setting [2]); 4 nM against PIM-1 (35 μM ATP, 0.25 nM PIM-1); 20 nM on recombinant rat PIM-3 (read-out: PIM-3 IC50).

For `CC[C@H](CN)C(C)Oc1cccc2ccc(-c3nnc4ccccn34)nc12` (stereo partly drawn) [Example 33, (2R)-3-(2-([1,2,4]triazolo[4,3-a]pyridin-3-yl)quinolin-8-yloxy)-2-ethylbutan-1-amine], the IC50 in assay [1] (setting [2]) worked out at 279 nM; against PIM-1 (35 μM ATP, 0.25 nM PIM-1), 5 nM; on recombinant rat PIM-3 (read-out: PIM-3 IC50) it was 19 nM.

Turning to `CC(C)(COc1cc(F)cc2ccc(-c3nnc4ccccn34)nc12)[C@@H](O)CO` [Example 112, (R)-4-(2-([1,2,4]triazolo[4,3-a]pyridin-3-yl)-6-fluoroquinolin-8-yloxy)-3,3-dimethylbutane-1,2-diol dihydrochloride], the IC50 in assay [1] (setting [2]) was found to be 300 nM; against PIM-1 (35 μM ATP, 0.25 nM PIM-1) it was 3.3 nM; at recombinant rat PIM-3 (read-out: PIM-3 IC50), 10.1 nM.

In the case of `FC1CCNCCC1Oc1cccc2ccc(-c3nnc4ccccn34)nc12` (single isomer, unassigned) [Example 49, 2-([1,2,4]triazolo[4,3-a]pyridin-3-yl)-8-(5-fluoroazepan-4-yloxy)quinoline dihydrochloride], the IC50 in assay [1] (setting [3]) stood at 100 nM; against PIM-1 (35 μM ATP, 0.25 nM PIM-1) it was 0.92 nM; at recombinant rat PIM-3 (PIM-3 IC50 (nM)) it was 2 nM.

`Fc1cc(OC2CCNCCC2F)c2nc(-c3nnc4ccccn34)ccc2c1` (single isomer, unassigned) [Example 121, 2-([1,2,4]triazolo[4,3-a]pyridin-3-yl)-6-fluoro-8-(trans-5-fluoroazepan-4-yloxy)quinoline]: the IC50 in assay [1] (setting [2]) turned out to be 520 nM; against PIM-1 (35 μM ATP, 0.25 nM PIM-1) it was 30.5 nM; at recombinant rat PIM-3 (read-out: PIM-3 IC50) it was 16.1 nM.

For `Fc1cc(O[C@H]2CCNC[C@H]2F)c2nc(-c3nnc4ccccn34)ccc2c1` (relative stereo) [Example 88, 2-([1,2,4]triazolo[4,3-a]pyridin-3-yl)-6-fluoro-8-((cis)-3-fluoropiperidin-4-yloxy)quinoline], the 50% inhibitory concentration (IC50) in assay [1] (setting [2]) is 502 nM; at PIM-1 (35 μM ATP, 0.25 nM PIM-1), 8 nM; at recombinant rat PIM-3 (read-out: PIM-3 IC50), 24 nM.

Turning to `c1cc(OC2CCCNCC2)c2nc(-c3nnc4ccccn34)ccc2c1` (single isomer, unassigned) [Example 128, 2-([1,2,4]triazolo[4,3-a]pyridin-3-yl)-8-(azepan-4-yloxy)quinoline], the IC50 was 1000 nM in assay [1] (setting [2]); 19.1 nM on PIM-1 (35 μM ATP, 0.25 nM PIM-1); 79.4 nM at recombinant rat PIM-3 (read-out: PIM-3 IC50).

For the compound `COC1(COc2cccc3ccc(-c4nnc5ccccn45)nc23)CCNCC1` [Example 73, 2-([1,2,4]triazolo[4,3-a]pyridin-3-yl)-8-((4-methoxypiperidin-4-yl)methoxy)quinoline bis(trifluoroacetate)], the IC50 in assay [1] (setting [2]) came to 79 nM; against PIM-1, 0.96 nM; at recombinant rat PIM-3 (read-out: PIM-3 IC50), 5 nM.

On to `c1cc(OC2CCNCC2)c2nc(-c3nnc4ccccn34)ccc2c1` [Example 9, 2-([1,2,4]triazolo[4,3-a]pyridin-3-yl)-8-(piperidin-4-yloxy)quinoline di-trifluoroacetate], for which the IC50 was 570 nM in assay [1] (read-out: PIM-2 IC50); 4 nM at PIM-1 (35 μM ATP, 0.25 nM PIM-1); 17 nM on recombinant rat PIM-3 (read-out: PIM-3 IC50).

As to `CC1(COc2cccc3ccc(-c4nnc5ccccn45)nc23)CCNCC1` [Example 67, 2-([1,2,4]triazolo[4,3-a]pyridin-3-yl)-8-((4-methylpiperidin-4-yl)methoxy)quinoline dihydrochloride], the 50% inhibitory concentration (IC50) in assay [1] (setting [2]) is 69 nM; against PIM-1 (35 μM ATP, 0.25 nM PIM-1), 0.95 nM; on recombinant rat PIM-3 (read-out: PIM-3 IC50), 3 nM.

As to `FC1CCNCCC1Oc1cccc2ccc(-c3nnc4ccccn34)nc12` (single isomer, unassigned) [Example 47, 2-([1,2,4]triazolo[4,3-a]pyridin-3-yl)-8-(-5-fluoroazepan-4-yloxy)quinoline dihydrochloride], the IC50 in assay [1] (setting [3]) turned out to be 1170 nM; at PIM-1 (35 μM ATP, 0.25 nM PIM-1) it was 32 nM; at recombinant rat PIM-3 (PIM-3 IC50 (nM)), 41 nM.

For `CON(C)C(=O)[C@@H]1C[C@@H](Oc2cccc3ccc(-c4nnc5ccccn45)nc23)CCN1` [Example 55, (2S,4S)-4-(2-([1,2,4]triazolo[4,3-a]pyridin-3-yl)quinolin-8-yloxy)-N-methoxy-N-methylpiperidine-2-carboxamide dihydrochloride], the IC50 in assay [1] (setting [2]) was determined as 10000 nM; against PIM-1 (35 μM ATP, 0.25 nM PIM-1), 70 nM; at recombinant rat PIM-3 (read-out: PIM-3 IC50) it was 222 nM.

On to `CCCC(Oc1cccc2ccc(-c3nnc4ccccn34)nc12)[C@@H](CC)CN` (stereo partly drawn) [Example 34, (2S)-3-(2-([1,2,4]triazolo[4,3-a]pyridin-3-yl)quinolin-8-yloxy)-2-ethylhexan-1-amine], for which the IC50 in assay [1] (setting [2]) amounted to 1350 nM; at PIM-1 (35 μM ATP, 0.25 nM PIM-1) it was 13 nM; on recombinant rat PIM-3 (read-out: PIM-3 IC50) it was 51 nM.

Turning to `c1cc(OC[C@@H]2CCCN2)c2nc(-c3nnc4ccccn34)ccc2c1` [Example 61, (S)-2-([1,2,4]triazolo[4,3-a]pyridin-3-yl)-8-(pyrrolidin-2-ylmethoxy)quinoline], the 50% inhibitory concentration (IC50) came out at 10000 nM in assay [1] (setting [2]); 132 nM against PIM-1 (35 μM ATP, 0.25 nM PIM-1); 728 nM at recombinant rat PIM-3 (read-out: PIM-3 IC50).

`OCC1(COc2cccc3ccc(-c4nnc5ccccn45)nc23)CC1` [Example 22, (1-((2-([1,2,4]triazolo[4,3-a]pyridin-3-yl)quinolin-8-yloxy)methyl)cyclopropyl)methanol]: the IC50 in assay [1] (setting [2]) is 501 nM; on PIM-1 (35 μM ATP, 0.25 nM PIM-1), 5 nM; on recombinant rat PIM-3 (read-out: PIM-3 IC50) it was 25 nM.

In the case of `CCC(Oc1cccc2ccc(-c3nnc4ccccn34)nc12)[C@H](CC)CN` (stereo partly drawn) [Example 31, (2R)-3-(2-([1,2,4]triazolo[4,3-a]pyridin-3-yl)quinolin-8-yloxy)-2-ethylpentan-1-amine], the IC50 was determined as 413 nM in assay [1] (setting [2]); 4 nM against PIM-1 (35 μM ATP, 0.25 nM PIM-1); 19 nM at recombinant rat PIM-3 (read-out: PIM-3 IC50).

For `CCCC(Oc1cccc2ccc(-c3nnc4ccccn34)nc12)[C@H](CC)CN` (stereo partly drawn) [Example 35, (2R)-3-(2-([1,2,4]triazolo[4,3-a]pyridin-3-yl)quinolin-8-yloxy)-2-ethylhexan-1-amine], the half-maximal inhibitory concentration (IC50) in assay [1] (setting [2]) turned out to be 1360 nM; against PIM-1 (35 μM ATP, 0.25 nM PIM-1) it was 10 nM; at recombinant rat PIM-3 (read-out: PIM-3 IC50), 48 nM.

Consider `NCCCNc1cccc2ccc(-c3nnc4ccccn34)nc12` [Example 7, N1-(2-([1,2,4]Triazolo[4,3-a]pyridin-3-yl)quinolin-8-yl)propane-1,3-diamine], for which the IC50 is 1040 nM in assay [1] (setting [2]); 5 nM on PIM-1 (35 μM ATP, 0.25 nM PIM-1); 35 nM at recombinant rat PIM-3 (read-out: PIM-3 IC50).

Take `Cc1ccc2nnc(-c3ccc4cccc(OC5CCNCCC5F)c4n3)n2c1` (single isomer, unassigned) [Example 99, 8-((trans)-5-fluoroazepan-4-yloxy)-2-(6-methyl-[1,2,4]triazolo[4,3-a]pyridin-3-yl)quinoline dihydrochloride]: the IC50 amounted to 1000 nM in assay [1] (read-out: PIM-2 IC50, 4 μM ATP, […] PIM-2, dihydrochloride); 17.4 nM at PIM-1 (35 μM ATP, 0.25 nM PIM-1, dihydrochloride); 39.7 nM on recombinant rat PIM-3 (read-out: PIM-3 IC50, dihydrochloride).

The term IC50 denotes the midpoint of a concentration-inhibition curve.
